# In patent US12371454B2, “Cyclic peptide compound having Kras inhibitory action” (priority 2019, dated 2025):
# Starred links: 1 amine or outer side, 2 acyl side, 3 side chain; linkers in the order of their positions; H or OH if unused. Positions of bridges follow the written chain, without caps; N, C: chain ends. Non-standard residues stand in square brackets, D forms with d. Residues, ends and D or L forms follow the SMILES beside them. *: point of attachment. hPhe(3,5-F2-4-CF3) = N[C@@H](CCc1cc(F)c(C(F)(F)F)c(F)c1)C(=O)O; hPhe(3-Cl-4-CF3) = N[C@@H](CCc1ccc(C(F)(F)F)c(Cl)c1)C(=O)O; 3Oxa8azabicyclo(3.2.1)octane = C1CC2COCC1N2*; NMePhe(4-Me) = CN[C@@H](Cc1ccc(C)cc1)C(=O)O; NMePhe(4-F) = CN[C@@H](Cc1ccc(F)cc1)C(=O)O; NMedβ3hAla = C[C@H](CC(=O)[*:2])N(C)[*:1]; NMeAla(cPent) = CN[C@@H](CC1CCCC1)C(=O)O; NMeGly(cPent) = CN[C@H](C(=O)O)C1CCCC1; NMeGly(cBu) = CN[C@H](C(=O)O)C1CCC1; NMeCha = CN[C@@H](CC1CCCCC1)C(=O)O; NMeCba = CN[C@@H](CC1CCC1)C(=O)O; NMeChg = CN[C@H](C(=O)O)C1CCCCC1; NMeD = CN[C@@H](CC(=O)O)C(=O)O; NMeL = CN[C@@H](CC(C)C)C(=O)O; NMeNva = CCC[C@H](NC)C(=O)O; NMeV = CN[C@H](C(=O)O)C(C)C; d(β3hA) = C[C@@H](N)CC(=O)O; NMeAbu = CC[C@H](NC)C(=O)O; NMeS = CN[C@@H](CO)C(=O)O; Morpholide = C1CN(*)CCO1; NMeA = CN[C@@H](C)C(=O)O; Piperidide = C1CCN(*)CC1; Pyrrolidide = C1CCN(*)C1; Ac5c = NC1(C(=O)O)CCCC1; Aze = O=C(O)[C@@H]1CCN1; Sar = CNCC(=O)O; Propyl = CCC*
# What was measured:
# [1] = biological target: T1, Kras and SOS1 (biotin-tagged human Kras loaded with GDP, His-tagged human SOS1) (Homo sapiens, UniProt P01116, G12D); experiment: Protein-protein interaction inhibition between Kras and SOS1 (KrasGl2D-SOS PPI) using AlphaScreen; format: binding; conditions: AlphaScreen; biotin-tagged human Kras loaded with GDP, His-tagged human SOS1; read-out: KRAS G12D-SOS PPI IC50
# T1 construct: made in house; host or cells: E. coli (stated for Kras only)
# Summary of the method: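 Donor beads (nickel) hold His-SOS1; acceptor beads (streptavidin) hold biotin-Kras bound to GDP. Signal measured at 520-620 nm following 680 nm excitation.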
# [2] = test system: Human pancreatic cancer cell line AsPC-1; experiment: Measurement of AsPC-1 cell growth inhibition (AsPC-1 CGI); format: cell-based; conditions: 96 h
# Summary of the method: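 AsPC-1 cells in 15% FBS RPMI-1640 were exposed to test compound for 96 hours at 37° C, with CellTiter-Glo as endpoint.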
# T1 sequence (P01116 1-188 isoform P01116-2 G12D): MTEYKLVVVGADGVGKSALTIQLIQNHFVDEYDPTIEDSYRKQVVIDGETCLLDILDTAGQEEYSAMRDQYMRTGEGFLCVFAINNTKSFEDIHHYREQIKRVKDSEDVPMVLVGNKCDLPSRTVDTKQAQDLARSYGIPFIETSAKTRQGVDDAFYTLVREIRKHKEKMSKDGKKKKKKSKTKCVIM
SMILES,IC50 [1] [nM],IC50 [2] [nM]
CC[C@H](C)[C@@H]1NC(=O)[C@H](CC(C)C)N(C)C(=O)C[C@@H](C(=O)N2CCCCC2)N(C)C(=O)[C@H](C(C)C)N(C)C(=O)C2(CCCC2)NC(=O)[C@@H]2CCCN2C(=O)[C@H](CCc2ccc(C(F)(F)F)c(Cl)c2)NC(=O)CN(C)C(=O)[C@H](CC2CCC2)N(C)C(=O)CN(C)C(=O)CN(C)C1=O [Compound 1124] ([NMeL]I[Sar][Sar][NMeCba][Sar][hPhe(3-Cl-4-CF3)]P[Ac5c][NMeV][NMeD]-Piperidide; lactam N-11),7,100 to 500
CC[C@H](C)[C@@H]1NC(=O)[C@H](CC(C)C)N(C)C(=O)C[C@@H](C(=O)N2CCCCC2)N(C)C(=O)[C@H](C2CCCCC2)N(C)C(=O)C2(CCCC2)NC(=O)[C@@H]2CCCN2C(=O)[C@H](CCc2ccc(C(F)(F)F)c(Cl)c2)NC(=O)CN(C)C(=O)[C@H](C2CCCC2)N(C)C(=O)CN(C)C(=O)CN(C)C1=O [Compound 1669] ([NMeL]I[Sar][Sar][NMeGly(cPent)][Sar][hPhe(3-Cl-4-CF3)]P[Ac5c][NMeChg][NMeD]-Piperidide; lactam N-11),1.8,100 to 500
CO[C@H](C)[C@@H]1NC(=O)[C@H](CC(C)C)N(C)C(=O)C[C@@H](C(=O)N2CCCCC2)N(C)C(=O)[C@H](C2CCCCC2)N(C)C(=O)C2(CCCC2)NC(=O)[C@@H]2CCCN2C(=O)[C@H](CCc2ccc(C(F)(F)F)c(Cl)c2)NC(=O)CN(C)C(=O)[C@H](CC2CCCCC2)N(C)C(=O)CN(C)C(=O)CN(C)C1=O [Compound 535] ([NMeL]T(Me)[Sar][Sar][NMeCha][Sar][hPhe(3-Cl-4-CF3)]P[Ac5c][NMeChg][NMeD]-Piperidide; lactam N-11),0.65,50 to 100
CCCOC[C@H]1C(=O)N(C)CC(=O)N[C@@H](CCc2ccc(C(F)(F)F)c(Cl)c2)C(=O)N2CCC[C@H]2C(=O)NC2(CCCC2)C(=O)N(C)[C@@H](C2CCCCC2)C(=O)N(C)[C@H](C(=O)N2C3CCC2COC3)CC(=O)N(C)[C@@H](C2CCC2)C(=O)N[C@@H]([C@@H](C)CC)C(=O)N(C)CC(=O)N(C)CC(=O)N1C [Compound 140] ([NMeGly(cBu)]I[Sar][Sar][NMeS](Propyl)[Sar][hPhe(3-Cl-4-CF3)]P[Ac5c][NMeChg][NMeD]-{3Oxa8azabicyclo(3.2.1)octane}; lactam N-11),0.81,100 to 500
CC[C@H](C)[C@@H]1NC(=O)[C@H](CC(C)C)N(C)C(=O)C[C@@H](C(=O)N2C3CCC2COC3)N(C)C(=O)[C@H](C2CCCCC2)N(C)C(=O)C2(CCCC2)NC(=O)[C@@H]2CCCN2C(=O)[C@H](CCc2ccc(C(F)(F)F)c(Cl)c2)NC(=O)CN(C)C(=O)[C@H](Cc2ccc(C)cc2)N(C)C(=O)CN(C)C(=O)CN(C)C1=O [Compound 1869] ([NMeL]I[Sar][Sar][NMePhe(4-Me)][Sar][hPhe(3-Cl-4-CF3)]P[Ac5c][NMeChg][NMeD]-{3Oxa8azabicyclo(3.2.1)octane}; lactam N-11),0.76,50 to 100
CC[C@H](C)[C@@H]1NC(=O)[C@H](C2CCC2)N(C)C(=O)C[C@@H](C(=O)N2CCOCC2)N(C)C(=O)[C@H](C2CCCCC2)N(C)C(=O)C2(CCCC2)NC(=O)[C@@H]2CCCN2C(=O)[C@H](CCc2ccc(C(F)(F)F)c(Cl)c2)NC(=O)CN(C)C(=O)[C@H](CC2CCCCC2)N(C)C(=O)CN(C)C(=O)CN(C)C1=O [Compound 890] ([NMeGly(cBu)]I[Sar][Sar][NMeCha][Sar][hPhe(3-Cl-4-CF3)]P[Ac5c][NMeChg][NMeD]-Morpholide; lactam N-11),0.47,20 to 50
CC[C@H](C)[C@@H]1NC(=O)[C@H](CC(C)C)N(C)C(=O)C[C@@H](C)N(C)C(=O)[C@H](C(C)C)N(C)C(=O)C2(CCCC2)NC(=O)[C@@H]2CCCN2C(=O)[C@H](CCc2ccc(C(F)(F)F)c(Cl)c2)NC(=O)CN(C)C(=O)[C@H](CC2CCCCC2)N(C)C(=O)CN(C)C(=O)CN(C)C1=O [Compound 608] (cyclo([Ac5c][NMeV][NMedβ3hAla][NMeL]I[Sar][Sar][NMeCha][Sar][hPhe(3-Cl-4-CF3)]P)),5.9,50 to 100
CC[C@H](C)[C@@H]1NC(=O)[C@H](CC(C)C)N(C)C(=O)C[C@@H](C(=O)N2CCCCC2)N(C)C(=O)[C@H](C2CCCCC2)N(C)C(=O)C2(CCCC2)NC(=O)[C@@H]2CCCN2C(=O)[C@H](CCc2ccc(C(F)(F)F)c(Cl)c2)NC(=O)CN(C)C(=O)[C@H](CC(C)C)N(C)C(=O)CN(C)C(=O)CN(C)C1=O [Compound 1652] ([NMeL]I[Sar][Sar][NMeL][Sar][hPhe(3-Cl-4-CF3)]P[Ac5c][NMeChg][NMeD]-Piperidide; lactam N-11),3.1,100 to 500
CC[C@H](C)[C@@H]1NC(=O)[C@H](CC(C)C)N(C)C(=O)C[C@@H](C(=O)N2C3CCC2COC3)N(C)C(=O)[C@H](C(C)C)N(C)C(=O)C2(CCCC2)NC(=O)[C@@H]2CCCN2C(=O)[C@H](CCc2ccc(C(F)(F)F)c(Cl)c2)NC(=O)CN(C)C(=O)[C@H](CC2CCCCC2)N(C)C(=O)[C@@H]2CCN2C(=O)[C@H](C)N(C)C1=O [Compound 1235] ([NMeL]I[NMeA][Aze][NMeCha][Sar][hPhe(3-Cl-4-CF3)]P[Ac5c][NMeV][NMeD]-{3Oxa8azabicyclo(3.2.1)octane}; lactam N-11),5.5,100 to 500
CCCOC[C@H]1C(=O)N(C)CC(=O)N[C@@H](CCc2ccc(C(F)(F)F)c(Cl)c2)C(=O)N2CCC[C@H]2C(=O)NC2(CCCC2)C(=O)N(C)[C@@H](C2CCCCC2)C(=O)N(C)[C@H](C(=O)N2CCCC2)CC(=O)N(C)[C@@H](CCC)C(=O)N[C@@H]([C@@H](C)CC)C(=O)N(C)CC(=O)N(C)CC(=O)N1C [Compound 2005] ([NMeNva]I[Sar][Sar][NMeS](Propyl)[Sar][hPhe(3-Cl-4-CF3)]P[Ac5c][NMeChg][NMeD]-Pyrrolidide; lactam N-11),0.64,50 to 100
CC[C@H](C)[C@@H]1NC(=O)[C@H](CC)N(C)C(=O)C[C@@H](C(=O)N2C3CCC2COC3)N(C)C(=O)[C@H](C2CCCCC2)N(C)C(=O)C2(CCCC2)NC(=O)[C@@H]2CCCN2C(=O)[C@H](CCc2ccc(C(F)(F)F)c(Cl)c2)NC(=O)CN(C)C(=O)[C@H](CC2CCCCC2)N(C)C(=O)CN(C)C(=O)CN(C)C1=O [Compound 1901] ([NMeAbu]I[Sar][Sar][NMeCha][Sar][hPhe(3-Cl-4-CF3)]P[Ac5c][NMeChg][NMeD]-{3Oxa8azabicyclo(3.2.1)octane}; lactam N-11),0.56,50 to 100
"CC[C@H](C)[C@@H]1NC(=O)[C@H](C2CCC2)N(C)C(=O)C[C@@H](C(=O)N2CCCC2)N(C)C(=O)[C@H](C2CCCCC2)N(C)C(=O)C2(CCCC2)NC(=O)[C@@H]2CCCN2C(=O)[C@H](CCc2cc(F)c(C(F)(F)F)c(F)c2)NC(=O)CN(C)C(=O)[C@H](CC2CCCCC2)N(C)C(=O)CN(C)C(=O)CN(C)C1=O [Compound 1275] ([NMeGly(cBu)]I[Sar][Sar][NMeCha][Sar][hPhe(3,5-F2-4-CF3)]P[Ac5c][NMeChg][NMeD]-Pyrrolidide; lactam N-11)",0.65,20 to 50
CC[C@H](C)[C@@H]1NC(=O)[C@H](CC(C)C)N(C)C(=O)C[C@@H](C(=O)N2CCCCC2)N(C)C(=O)[C@H](C(C)C)N(C)C(=O)C2(CCCC2)NC(=O)[C@@H]2CCCN2C(=O)[C@H](CCc2ccc(C(F)(F)F)c(Cl)c2)NC(=O)CN(C)C(=O)[C@H](Cc2ccc(F)cc2)N(C)C(=O)CN(C)C(=O)CN(C)C1=O [Compound 1631] ([NMeL]I[Sar][Sar][NMePhe(4-F)][Sar][hPhe(3-Cl-4-CF3)]P[Ac5c][NMeV][NMeD]-Piperidide; lactam N-11),5,100 to 500
CC[C@H](C)[C@@H]1NC(=O)[C@H](CC(C)C)N(C)C(=O)C[C@@H](C(=O)N2CCCCC2)N(C)C(=O)[C@H](C2CCCCC2)N(C)C(=O)C2(CCCC2)NC(=O)[C@@H]2CCCN2C(=O)[C@H](CCc2ccc(C(F)(F)F)c(Cl)c2)NC(=O)CN(C)C(=O)[C@H](CC2CCCC2)N(C)C(=O)CN(C)C(=O)CN(C)C1=O [Compound 1689] ([NMeL]I[Sar][Sar][NMeAla(cPent)][Sar][hPhe(3-Cl-4-CF3)]P[Ac5c][NMeChg][NMeD]-Piperidide; lactam N-11),1.1,50 to 100
CC[C@H](C)[C@@H]1NC(=O)[C@H](CC(C)C)N(C)C(=O)C[C@@H](C)N(C)C(=O)[C@H](C2CCCC2)N(C)C(=O)C2(CCCC2)NC(=O)[C@@H]2CCCN2C(=O)[C@H](CCc2ccc(C(F)(F)F)c(Cl)c2)NC(=O)CN(C)C(=O)[C@H](CC2CCCCC2)N(C)C(=O)CN(C)C(=O)CN(C)C1=O [Compound 420] (cyclo([Ac5c][NMeGly(cPent)][NMedβ3hAla][NMeL]I[Sar][Sar][NMeCha][Sar][hPhe(3-Cl-4-CF3)]P)),3.4,50 to 100
CC[C@H](C)[C@@H]1NC(=O)[C@H](C2CCC2)N(C)C(=O)C[C@@H](C)NC(=O)[C@H](C(C)C)N(C)C(=O)C2(CCCC2)NC(=O)[C@@H]2CCCN2C(=O)[C@H](CCc2ccc(C(F)(F)F)c(Cl)c2)NC(=O)CN(C)C(=O)[C@H](CC2CCCCC2)N(C)C(=O)CN(C)C(=O)CN(C)C1=O [Compound 815] (cyclo([Ac5c][NMeV][d(β3hA)][NMeGly(cBu)]I[Sar][Sar][NMeCha][Sar][hPhe(3-Cl-4-CF3)]P)),26,100 to 500
CC[C@H](C)[C@@H]1NC(=O)[C@H](C)N(C)C(=O)C[C@@H](C(=O)N2CCCCC2)N(C)C(=O)[C@H](C(C)C)N(C)C(=O)C2(CCCC2)NC(=O)[C@@H]2CCCN2C(=O)[C@H](CCc2ccc(C(F)(F)F)c(Cl)c2)NC(=O)CN(C)C(=O)[C@H](CC2CCCCC2)N(C)C(=O)CN(C)C(=O)CN(C)C1=O [Compound 360] ([NMeA]I[Sar][Sar][NMeCha][Sar][hPhe(3-Cl-4-CF3)]P[Ac5c][NMeV][NMeD]-Piperidide; lactam N-11),2.8,100 to 500
